Where two headings read alike, the source gives them in different places.
How the values were obtained:
[1] = tested on: NCI-H929 human multiple myeloma tumor cell line; assay: NCI-H929 cell viability assay (CellTiter-Glo, 24 hours); format: cell-based
Protocol: Each concentration was tested in duplicate at least 3 independent times. A luminescent signal proportional to the number of viable cells following 24 hours of compound treatment was determined using the CellTiter-Glo® Luminescent Cell Viability Assay according to the manufacturer's recommendations (Promega Corp., Madison, WI). The plates were read in a Perkin Elmer Envision using a Luminescence protocol. To generate dose response curves the data is normalized to percent viability by setting the averages of the staurosporine (10 μM) and DMSO only control wells to 0% and 100% viability respectively.

GST-MCL-1 = GST-MCL-1 (Homo sapiens, UniProt Q07820); assay: TR-FRET MCL-1 binding assay (competition with probe F-Bak)
Procedure, shortened: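 Displacement of F-Bak from GST-MCL-1 is detected by time-resolved FRET with a Tb-labelled anti-GST antibody, with excitation 340/35 nm and emission 520/525 and 495/510 nm, after 2 hours at room temperature. Compounds were titrated in 11 three-fold steps starting at 25 μM final, in buffer alone or in 10% HS.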

[2] = tested on: AMO-1 human multiple myeloma tumor cell line; assay: AMO-1 cell viability assay (CellTiter-Glo, 24 hours); format: cell-based
[3] = Homo sapiens, NCI-H929, 24 h, read-out: H929 Viability IC50 (μM, 10% FBS), 10% FBS, 24 hours of compound treatment
[4] = MCL-1 Binding Ki (nM, 10% HS), in the presence of 10% HS (human serum)
[5] = without HS, read-out: MCL-1 Binding Ki
[6] = Homo sapiens, AMO1, 24 h, read-out: AMO-1 Viability IC50 (μM, 10% FBS), 10% FBS, 24 hours of compound treatment

Sequence of GST-MCL-1 (Q07820 whole entry): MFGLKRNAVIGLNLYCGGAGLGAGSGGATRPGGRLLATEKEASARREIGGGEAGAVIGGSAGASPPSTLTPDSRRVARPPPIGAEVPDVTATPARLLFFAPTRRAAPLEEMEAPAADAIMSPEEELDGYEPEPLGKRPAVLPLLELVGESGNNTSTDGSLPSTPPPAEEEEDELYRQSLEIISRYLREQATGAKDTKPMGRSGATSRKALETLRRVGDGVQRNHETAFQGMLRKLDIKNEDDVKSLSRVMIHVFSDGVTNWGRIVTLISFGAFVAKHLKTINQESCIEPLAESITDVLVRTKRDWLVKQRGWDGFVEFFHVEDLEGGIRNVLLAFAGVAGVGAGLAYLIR

SMILES	IC50 [1, 3]	Ki (GST-MCL-1; [4])	Ki (GST-MCL-1; [5])	IC50 [2, 6]	IC50 ([1]; read-out: H929 Viability IC50 (μM, 10% FBS), 10% FBS, 24 hours of compound treatment)	IC50 ([2]; read-out: AMO-1 Viability IC50 (μM, 10% FBS), 10% FBS, 24 hours of compound treatment)
COCCOCCOCC1(F)CC=C(c2nccc(COc3ccc4cc3C[C@H](C(=O)O)Oc3ncnc5sc(-c6ccc(F)cc6)c(c35)-c3c(C)c(Cl)c(c(Cl)c3C)O[C@H](CN3CCN(C)CC3)CO4)n2)CC1 (single isomer, unassigned) [Example 86, (7R,16R)-19,23-dichloro-10-({2-[(4S*)-4-fluoro-4-{[2-(2-methoxyethoxy)ethoxy]methyl}cyclohex-1-en-1-yl]pyrimidin-4-yl}methoxy)-1-(4-fluorophenyl)-20,22-dimethyl-16-[(4-methylpiperazin-1-yl)methyl]-7,8,15,16-tetrahydro-18,21-etheno-13,9-(metheno)-6,14,17-trioxa-2-thia-3,5-diazacyclononadeca[1,2,3-cd]indene-7-carboxylic Acid]	0.000258 µM	0.102 nM	0.008 nM	0.000105 µM		
COCCOCCOCCC1CCN(C[C@@H]2COc3ccc(OCc4ccnc(-c5ccccc5OC)n4)c(c3)C[C@H](C(=O)O)Oc3ncnc4sc(-c5ccc(F)cc5)c(c34)-c3ccc(c(Cl)c3C)O2)CC1 (atropisomer, axis not shown) [Example 27, (7R,16R,21R)-19-chloro-1-(4-fluorophenyl)-16-[(4-{2-[2-(2-methoxyethoxy)ethoxy]ethyl}piperidin-1-yl)methyl]-10-{[2-(2-methoxyphenyl)pyrimidin-4-yl]methoxy}-20-methyl-7,8,15,16-tetrahydro-18,21-etheno-13,9-(metheno)-6,14,17-trioxa-2-thia-3,5-diazacyclononadeca[1,2,3-cd]indene-7-carboxylic Acid]		22 nM	0.987 nM		0.319 µM	0.314 µM
Cc1c(Cl)c2c(Cl)c(C)c1-c1c(-c3ccc(F)cc3)sc3ncnc(c13)O[C@@H](C(=O)O)Cc1cc(ccc1OCc1ccnc(C3=CCS(=O)(=O)CC3)n1)OC[C@@H](CN1CCN(C)CC1)O2 [Example 34, (7R,16R)-19,23-dichloro-10-{[2-(1,1-dioxo-1,2,3,6-tetrahydro-1λ^6-thiopyran-4-yl)pyrimidin-4-yl]methoxy}-1-(4-fluorophenyl)-20,22-dimethyl-16-[(4-methylpiperazin-1-yl)methyl]-7,8,15,16-tetrahydro-18,21-etheno-13,9-(metheno)-6,14,17-trioxa-2-thia-3,5-diazacyclononadeca[1,2,3-cd]indene-7-carboxylic Acid]	0.00242 µM	0.276 nM	0.016 nM	0.00123 µM		
Cc1c2ccc(c1Cl)O[C@H](CN1CCN(C)CC1)COc1ccc(OCc3ccnc(-c4ccccc4C(=O)O)n3)c(c1)C[C@H](C(=O)O)Oc1ncnc3sc(-c4ccc(F)cc4)c-2c13 (atropisomer, axis not shown) [Example 19, (7R,16R)-10-{[2-(2-carboxyphenyl)pyrimidin-4-yl]methoxy}-19-chloro-1-(4-fluorophenyl)-20-methyl-16-[(4-methylpiperazin-1-yl)methyl]-7,8,15,16-tetrahydro-18,21-etheno-13,9-(metheno)-6,14,17-trioxa-2-thia-3,5-diazacyclononadeca[1,2,3-cd]indene-7-carboxylic Acid]	0.365 µM	0.069 nM	0.006 nM	0.0963 µM		
COC[C@H](COc1ccc(-c2nccc(COc3ccc4cc3C[C@H](C(=O)O)Oc3ncnc5sc(-c6ccc(F)cc6)c(c35)-c3c(C)c(Cl)c(c(Cl)c3C)O[C@H](CN3CCN(C)CC3)CO4)n2)cc1)OC [Example 137, (7R,16R)-19,23-dichloro-10-[(2-{4-[(2R)-2,3-dimethoxypropoxy]phenyl}pyrimidin-4-yl)methoxy]-1-(4-fluorophenyl)-20,22-dimethyl-16-[(4-methylpiperazin-1-yl)methyl]-7,8,15,16-tetrahydro-18,21-etheno-9,13-(metheno)-6,14,17-trioxa-2-thia-3,5-diazacyclononadeca[1,2,3-cd]indene-7-carboxylic acid]	0.000286 µM	0.999 nM	0.031 nM	0.000394 µM		
COCCOCCOCCOCc1ccc(-c2nccc(COc3ccc4cc3C[C@H](C(=O)O)Oc3ncnc5sc(-c6ccc(F)cc6)c(c35)-c3c(C)c(Cl)c(c(Cl)c3C)O[C@H](CN3CCN(C)CC3)CO4)n2)c(OCCOCCOCCOC)c1 [Example 153, (7R,16R)-19,23-dichloro-1-(4-fluorophenyl)-10-({2-[2-{2-[2-(2-methoxyethoxy)ethoxy]ethoxy}-4-(2,5,8,11-tetraoxadodecan-1-yl)phenyl]pyrimidin-4-yl}methoxy)-20,22-dimethyl-16-[(4-methylpiperazin-1-yl)methyl]-7,8,15,16-tetrahydro-18,21-etheno-13,9-(metheno)-6,14,17-trioxa-2-thia-3,5-diazacyclononadeca[1,2,3-cd]indene-7-carboxylic Acid]	0.00688 µM	0.023 nM	0.001 nM	0.00728 µM		
Cc1c(Cl)c2c(Cl)c(C)c1-c1c(-c3ccc(F)cc3)sc3ncnc(c13)O[C@@H](C(=O)O)Cc1cc(ccc1OCc1ccnc([C@H]3CC[C@@H](CC(=O)O)CC3)n1)OC[C@@H](CN1CCN(C)CC1)O2 [Example 31, (7R,16R)-10-({2-[(1 s,4s)-4-(carboxymethyl)cyclohexyl]pyrimidin-4-yl}methoxy)-19,23-dichloro-1-(4-fluorophenyl)-20,22-dimethyl-16-[(4-methylpiperazin-1-yl)methyl]-7,8,15,16-tetrahydro-18,21-etheno-13,9-(metheno)-6,14,17-trioxa-2-thia-3,5-diazacyclononadeca[1,2,3-cd]indene-7-carboxylic Acid]	0.0133 µM	0.049 nM	0.004 nM	0.00743 µM		
Cc1c(Cl)c2c(Cl)c(C)c1-c1c(-c3ccc(F)cc3)sc3ncnc(c13)O[C@@H](C(=O)O)Cc1cc(ccc1OCc1ccnc(-c3cccc(CP(C)(C)=O)c3)n1)OC[C@@H](CN1CCN(C)CC1)O2 [Example 51, (7R,16R)-19,23-dichloro-10-[(2-{3-[(dimethylphosphoryl)methyl]phenyl}pyrimidin-4-yl)methoxy]-1-(4-fluorophenyl)-20,22-dimethyl-16-[(4-methylpiperazin-1-yl)methyl]-7,8,15,16-tetrahydro-18,21-etheno-13,9-(metheno)-6,14,17-trioxa-2-thia-3,5-diazacyclononadeca[1,2,3-cd]indene-7-carboxylic Acid]	0.00671 µM	0.076 nM	0.011 nM	0.0034 µM		
Cc1c(Cl)c2c(Cl)c(C)c1-c1c(-c3ccc(F)cc3)sc3ncnc(c13)O[C@@H](C(=O)O)Cc1cc(ccc1OCc1ccnc([C@H]3CC[C@H](CC(=O)O)CC3)n1)OC[C@@H](CN1CCN(C)CC1)O2 [Example 32, (7R,16R)-10-({2-[(1r,4r)-4-(carboxymethyl)cyclohexyl]pyrimidin-4-yl}methoxy)-19,23-dichloro-1-(4-fluorophenyl)-20,22-dimethyl-16-[(4-methylpiperazin-1-yl)methyl]-7,8,15,16-tetrahydro-18,21-etheno-13,9-(metheno)-6,14,17-trioxa-2-thia-3,5-diazacyclononadeca[1,2,3-cd]indene-7-carboxylic Acid]	0.0143 µM	0.034 nM	0.003 nM	0.00878 µM		
Cc1c(Cl)c2c(Cl)c(C)c1-c1c(-c3ccc(F)cc3)sc3ncnc(c13)O[C@@H](C(=O)O)Cc1cc(ccc1OCc1ccnc(-c3ccc(OCCN4C[C@H]5COC[C@H]5C4)cc3)n1)OC[C@@H](CN1CCN(C)CC1)O2 [Example 164, (7R,16R)-19,23-dichloro-1-(4-fluorophenyl)-20,22-dimethyl-16-[(4-methylpiperazin-1-yl)methyl]-10-{[2-(4-{2-[(3aR,6aS)-tetrahydro-1H-furo[3,4-c]pyrrol-5 (3H)-yl]ethoxy}phenyl)pyrimidin-4-yl]methoxy}-7,8,15,16-tetrahydro-18,21-etheno-13,9-(metheno)-6,14,17-trioxa-2-thia-3,5-diazacyclononadeca[1,2,3-cd]indene-7-carboxylic Acid]	0.00147 µM	0.453 nM	0.061 nM	0.000416 µM		
COCCOCCOCCOCc1ccc(-c2nccc(COc3ccc4cc3C[C@H](C(=O)O)Oc3ncnc5sc(-c6ccc(F)cc6)c(c35)-c3c(C)c(Cl)c(c(Cl)c3C)O[C@H](CN3CCN(C)CC3)CO4)n2)cc1COCCOCCOCCOC [Example 152, (7R,16R)-10-({2-[3,4-bis(2,5,8,11-tetraoxadodecan-1-yl)phenyl]pyrimidin-4-yl}methoxy)-19,23-dichloro-1-(4-fluorophenyl)-20,22-dimethyl-16-[(4-methylpiperazin-1-yl)methyl]-7,8,15,16-tetrahydro-18,21-etheno-13,9-(metheno)-6,14,17-trioxa-2-thia-3,5-diazacyclononadeca[1,2,3-cd]indene-7-carboxylic Acid]	0.00593 µM	0.041 nM	0.011 nM	0.00732 µM		

— patent US20250313572A1, “MACROCYCLIC MCL-1 INHIBITORS AND METHODS OF USE” (AbbVie Inc., priority 2017, published 2025)
